Measured values published in BindingDB's records for doi:10.1021/jm00153a007 (1986).

target: Prostacyclin synthase (Sus scrofa); assay: Inhibition of PGI-2 synthetase from porcine aorta

IC50, > 100 µM:
CC(C)c1c(Cn2ccnc2)c2ccccc2n1CCC(=O)O [3-(3-Imidazol-1-ylmethyl-2-isopropyl-indol-1-yl)-propionic acid], Cc1c(Cn2ccnc2)c2ccccc2n1/C=C/C(=O)O [3-(3-Imidazol-1-ylmethyl-2-methyl-indol-1-yl)-acrylic acid], O=C(O)CCn1cc(Cn2ccnc2)c2ccc(C(F)(F)F)cc21 [3-(3-Imidazol-1-ylmethyl-6-trifluoromethyl-indol-1-yl)-propionic acid], O=C(O)CCn1cc(Cn2ccnc2)c2cc(Br)ccc21 [3-(5-Bromo-3-imidazol-1-ylmethyl-indol-1-yl)-propionic acid], O=C(O)CCn1cc(Cn2ccnc2)c2cc(Cl)ccc21 [3-(5-Chloro-3-imidazol-1-ylmethyl-indol-1-yl)-propionic acid], CN(C)c1ccc2c(c1)c(Cn1ccnc1)cn2CCC(=O)O [3-(5-Dimethylamino-3-imidazol-1-ylmethyl-indol-1-yl)-propionic acid]
